Experimental data: patent US4391824A, “Ureylenebis (hydroxy naphthalenesulfonic acids)” (American Cyanamid Company, priority 1981, dated 1983)
Several values for one entry are separate records, joined by “and”; a condition that tells them apart may be missing. Equal values may be shown once. Where a name gives a salt, the structure may show the parent alone. One block for each compound: values may come before it.

Legend:
[1] = target: T1, human skin fibroblast collagenase (Homo sapiens, UniProt P03956); experiment: Collagenase Assay, Test Code 006 (degradation of 14C-labeled native collagen fibrils); assay type: biochemical; settings: 16 hours at 37° C., based on 0% value for enzyme control; for % Inhibition of Collagenase / inhibition at 30 µg/mL: test concentration 30 μg/ml
T1 construct: endogenous in cells; host or cells: human skin fibroblasts (from the enzyme's name; preparation not described)
T1 sequence (P03956 100-469): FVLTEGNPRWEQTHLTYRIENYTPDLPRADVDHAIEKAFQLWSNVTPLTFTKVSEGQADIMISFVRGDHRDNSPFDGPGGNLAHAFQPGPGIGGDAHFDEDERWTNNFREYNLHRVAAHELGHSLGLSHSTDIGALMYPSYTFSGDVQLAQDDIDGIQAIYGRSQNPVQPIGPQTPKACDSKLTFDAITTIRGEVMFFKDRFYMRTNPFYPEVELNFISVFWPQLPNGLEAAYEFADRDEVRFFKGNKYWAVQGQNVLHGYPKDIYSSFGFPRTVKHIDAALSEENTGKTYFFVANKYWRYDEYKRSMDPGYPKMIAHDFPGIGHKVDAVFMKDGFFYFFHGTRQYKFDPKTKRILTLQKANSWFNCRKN
Description: Collagenase assays were performed by a modification of the method of Harper, et. al., Biochem. 10: 3035 (1971). In a typical assay (total volume of 0.45 ml), 100 μl of the activated enzyme was added to the 14 C-labeled collagen fibrils (250 μl) followed by 100 μl of 50 mM cacodylate, pH 7.4, containing 5 mM calcium chloride. After incubation at 37° C. for 16 hours, the tubes were centrifuged in a Beckman microfuge for five minutes at full speed. An aliquot (200 μl) of the supernatant, representing collagenase digestion products of the fibril, was assayed for radioactivity. The effect of the test compound on collagen degradation by collagenase was examined as follows:
Varying concentrations of the test compound (in distilled water or dimethylacetamide) were added to the assay tubes containing active collagenase (total volume 450 μl) and after 16 hours the amount of radioactivity in the supernatant was determined. Appropriate blanks and trypsin controls were run in parallel.
The activities are expressed as % inhibition (lowering) of collagenase activity, i.e., based on the 0% value for the enzyme control.

corneal ulcerations = settings: alkali burned rabbit, eye; cited from earlier work
corneal ulceration = settings: human; cited from earlier work
collagenase = settings: collagenase, or a proteinase contaminant in the collagenase preparation; cited from earlier work

SMILES: O=C([O-])CN(CCN(CC(=O)[O-])CC(=O)[O-])CC(=O)[O-].[Ca+2].[Ca+2] [Calcium ethylenediaminetetraacetate]
frequency of ulceration (corneal ulcerations): reduce the frequency of ulceration

SMILES: CC(=O)N[C@@H](CS)C(=O)O [acetylcysteine]
frequency of ulceration (corneal ulcerations): reduce the frequency of ulceration | effectiveness in treatment of acute and chronic corneal ulceration (corneal ulceration): effective

SMILES: N[C@@H](CS)C(=O)O [cysteine]
effectiveness in treatment of acute and chronic corneal ulceration (corneal ulceration): effective

SMILES: Cc1ccc(C(=O)Nc2ccc(S(=O)(=O)O)c3cc(S(=O)(=O)O)cc(S(=O)(=O)O)c23)cc1NC(=O)c1cccc(NC(=O)Nc2cccc(C(=O)Nc3cc(C(=O)Nc4ccc(S(=O)(=O)O)c5cc(S(=O)(=O)O)cc(S(=O)(=O)O)c45)ccc3C)c2)c1 [Suramin]
inhibition of the activity of collagenase (collagenase): not inhibiting the action of collagenase

SMILES: Cc1cc(-c2ccc(/N=N/c3c(S(=O)(=O)O)cc4cc(S(=O)(=O)O)cc(N)c4c3O)c(C)c2)ccc1/N=N/c1c(S(=O)(=O)O)cc2cc(S(=O)(=O)O)cc(N)c2c1O [trypan blue]
inhibition of the activity of collagenase (collagenase): inhibiting the activity of collagenase

The next lines start with the values.

% Inhibition of Collagenase [1]: 45% | inhibition at 30 µg/mL [1]: 32.2%
SMILES: Cc1c(NC(=O)Nc2cccc(C(=O)Nc3cc(S(=O)(=O)O)cc4cc(S(=O)(=O)O)cc(O)c34)c2C)cccc1C(=O)Nc1cc(S(=O)(=O)O)cc2cc(S(=O)(=O)O)cc(O)c12 [4,4'-[Ureylenebis(2-methyl-3,1-phenylenecarbonylimino)]bis[5-hydroxy-2,7-naphthalenedisulfonic acid]tetrasodium salt]

% Inhibition of Collagenase [1]: 36% and 35% | inhibition at 30 µg/mL [1]: 50% | inhibition at 60 µg/mL ([1]; test concentration 60 μg/ml): 39%
SMILES: Cc1ccc(NC(=O)Nc2ccc(C)c(C(=O)Nc3cc(S(=O)(=O)O)cc4cc(S(=O)(=O)O)cc(O)c34)c2)cc1C(=O)Nc1cc(S(=O)(=O)O)cc2cc(S(=O)(=O)O)cc(O)c12 [4,4'-[Ureylenebis(6-methyl-3,1-phenylenecarbonylimino)]bis[5-hydroxy-2,7-naphthalenedisulfonic acid]tetrasodium salt]

inhibition at 30 µg/mL [1]: 78%
SMILES: Cc1cc(C(=O)Nc2cc(S(=O)(=O)O)cc3cc(S(=O)(=O)O)cc(O)c23)ccc1NC(=O)Nc1ccc(C(=O)Nc2cc(S(=O)(=O)O)cc3cc(S(=O)(=O)O)cc(O)c23)cc1C [4,4'-[Ureylenebis(3-methyl-p-phenylenecarbonylimino)]bis[5-hydroxy-2,7-naphthalenedisulfonic acid]tetrasodium salt]

inhibition at 30 µg/mL [1]: 58%
SMILES: O=C(Nc1ccc(C(=O)Nc2cccc3cc(S(=O)(=O)O)cc(O)c23)c(S(=O)(=O)O)c1)Nc1ccc(C(=O)Nc2cccc3cc(S(=O)(=O)O)cc(O)c23)c(S(=O)(=O)O)c1 [5,5'-[Ureylenebis(2-sulfo-4,1-phenylenecarbonylimino)]bis[4-hydroxy-2-naphthalenesulfonic acid]tetrasodium salt]

inhibition at 30 µg/mL [1]: 41%
SMILES: O=C(Nc1cccc(C(=O)Nc2cc(S(=O)(=O)O)cc3cc(S(=O)(=O)O)cc(O)c23)c1)Nc1cccc(C(=O)Nc2cc(S(=O)(=O)O)cc3cc(S(=O)(=O)O)cc(O)c23)c1 [4,4'[Ureylenebis(m-phenylenecarbonylimino)]bis[5-hydroxy-2,7-naphthalenedisulfonic acid]tetrasodium salt]

inhibition at 30 µg/mL [1]: 41%
SMILES: O=C(Nc1cccc(C(=O)Nc2cc3c(O)cc(S(=O)(=O)O)cc3cc2S(=O)(=O)O)c1)Nc1cccc(C(=O)Nc2cc3c(O)cc(S(=O)(=O)O)cc3cc2S(=O)(=O)O)c1 [3,3'-[Ureylenebis(m-phenylenecarbonylimino)]bis[5-hydroxy-2,7-naphthalenedisulfonic acid]tetrasodium salt]
